Measured values taken from US5049694A, “Pharmaceutical composition having relaxing activity which contains a nitrate ester as active substance” (Cedona Pharmaceuticals B.V., priority 1988, dated 1991).
Like-named read-outs stand apart in the source and are kept apart here.

Key:
[1] = system: contracted strips of the rats' arota; assay: relaxing potency in vitro on phenylefrine-contracted strips of rat aorta; assay type: cell-based, rat (male Wistar); settings: read-out: EC50 (concentration with which relaxation took place up to 50% of the contraction induced by 10^-7 M phenylefrine)
Method: The relaxing potency of the compounds as described is tested in vitro on contracted strips of the rats' arota. Male Wistar rates (200-220 g) are killed by decapitation. The thoracal aorta is removed and is helically cut into strips (length: ±10 mm, width: ±2 mm; 4 strips per rat).
The strips are suspended in organ baths filled with 20 ml of Krebs' medium with a constant temperature of 37° C. passing through O2 /CO2 (95/5) and subsequently for 2 h equilibrated under an isotonic load of 500 mg. The medium is renewed every 20 minutes.
After equilibration contraction takes place by addition of 10^-7M phenylefrine to the medium. After reaching the maximal contraction the composition with the organic nitrate ester to be tested in cumulative concentration steps is relaxed.
The degree of relaxation is expressed as a percentage of the maximal contraction (=100%) reached with 10^-7 M phenylefrine. The relaxing potency of the tested compounds is expressed as the EC50 : the concentration with which relaxation took place up to 50% of the contraction induced by 10^-7 M phenylefrine. From a number of compounds the EC50 -values have been stated in Table 1. For comparison the EC50 -values of glyceryltrinitrate and isosorbidedinitrate have also been included.

heart = settings: therapeutical use; cited from earlier work
[2] = chronical administration, clinical; cited from earlier work

O=[N+]([O-])OCCc1ccccc1 [Compound 1, 2-phenylethanol nitrate]
EC50 [1]: 120 nM

O=[N+]([O-])OCCc1cccc2ccccc12 [Compound 9, 2-(1-naphthyl)ethanol nitrate]
EC50 ([1]; Rattus norvegicus): 4.2 nM

O=[N+]([O-])OCC(CO[N+](=O)[O-])c1ccc2ccccc2c1 [Compound 10, 2-(2-naphthyl)-1,3-propanediol nitrate]
EC50 ([1]; Rattus norvegicus): 13 nM

O=[N+]([O-])OCCc1ccc(CCO[N+](=O)[O-])cc1 [Compound 11, 1,4-bis(2-nitroxyethyl)benzene]
EC50 ([1]; Rattus norvegicus): 4.6 nM

Cc1c(C)c(CCO[N+](=O)[O-])c(C)c(C)c1CCO[N+](=O)[O-] [Compound 12, 1,4-bis(2-nitroxyethyl)-2,3,5,6-tetramethylbenzene]
EC50 ([1]; Rattus norvegicus): 78 nM

O=[N+]([O-])OC(Cc1ccccc1)Cc1ccccc1 [Compound 23, 1,3-diphenyl-2-propanol nitrate]
EC50 ([1]; Rattus norvegicus): 400 nM

O=[N+]([O-])OCCOC(c1ccccc1)c1ccccc1 [Compound 25, 2-diphenylmethoxyethanol nitrate]
EC50 ([1]; Rattus norvegicus): 250 nM

O=[N+]([O-])O[C@@H]1CO[C@H]2[C@@H]1OC[C@@H]2OC(c1ccccc1)c1ccccc1 [Compound 28, 2-diphenylmethyl-1,4:3,6-dianhydroglucitol nitrate]
EC50 ([1]; Rattus norvegicus): 200 nM

O=[N+]([O-])OCC(CO[N+](=O)[O-])O[N+](=O)[O-] [glyceryl trinitrate]
EC50 ([1]; rat thoracal aorta strips, contracted with 10^-7 M phenylefrine, cumulative concentrations, 37° C.): 7.3 nM | need of oxygen to the heart (heart): lower need of oxygen to the heart | post-load of the heart (heart): also affected, be it to a lower extent | pre-load of the heart (heart): diminish especially the pre-load of the heart | development of tolerance [2]: development of so-called tolerance
